Assay [1] has as its target T1, mGAT3 (Mus musculus, UniProt P31649).
T1 construct: expressed in transfected cells; host or cells: HEK-293
T1 sequence (P31649 1-602): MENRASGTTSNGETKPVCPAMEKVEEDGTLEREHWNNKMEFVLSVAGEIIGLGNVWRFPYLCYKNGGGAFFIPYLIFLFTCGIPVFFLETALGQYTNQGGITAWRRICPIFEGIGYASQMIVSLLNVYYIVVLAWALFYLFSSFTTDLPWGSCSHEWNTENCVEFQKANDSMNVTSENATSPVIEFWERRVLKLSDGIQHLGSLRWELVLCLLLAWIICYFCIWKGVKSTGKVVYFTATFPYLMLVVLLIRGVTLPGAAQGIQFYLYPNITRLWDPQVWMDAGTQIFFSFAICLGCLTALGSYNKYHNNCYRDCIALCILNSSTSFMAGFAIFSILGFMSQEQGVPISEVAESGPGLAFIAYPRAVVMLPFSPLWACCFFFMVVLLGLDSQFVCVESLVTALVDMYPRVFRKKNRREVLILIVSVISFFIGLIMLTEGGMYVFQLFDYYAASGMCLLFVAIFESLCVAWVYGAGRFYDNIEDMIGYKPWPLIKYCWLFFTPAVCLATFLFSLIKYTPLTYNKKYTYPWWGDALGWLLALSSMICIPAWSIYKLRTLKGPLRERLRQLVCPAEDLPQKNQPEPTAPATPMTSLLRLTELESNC
As to the kind of experiment: [3H]GABA uptake assay in HEK-293 cells stably expressing mGAT3. The class given is cell-based. The following applies: for IC50: [3H]GABA uptake, read-out: pIC50 ± SEM mGAT3 (converted).

The target in assay [2] is T2, mGAT1 (Mus musculus, UniProt P31648).
T2 construct: expressed in transfected cells; host or cells: HEK-293
As to the kind of experiment: [3H]GABA uptake assay in HEK-293 cells stably expressing mGAT1. Format: cell-based. The following applies: for remaining [3H]GABA uptake mGAT1: in the presence of 100 μM inhibitor; for IC50: [3H]GABA uptake, read-out: pIC50 ± SEM mGAT1 (converted).

Assay [3] addresses T3, mGAT4 (Mus musculus, UniProt P31650).
T3 construct: expressed in transfected cells; host or cells: HEK-293
T3 sequence (P31650 1-627): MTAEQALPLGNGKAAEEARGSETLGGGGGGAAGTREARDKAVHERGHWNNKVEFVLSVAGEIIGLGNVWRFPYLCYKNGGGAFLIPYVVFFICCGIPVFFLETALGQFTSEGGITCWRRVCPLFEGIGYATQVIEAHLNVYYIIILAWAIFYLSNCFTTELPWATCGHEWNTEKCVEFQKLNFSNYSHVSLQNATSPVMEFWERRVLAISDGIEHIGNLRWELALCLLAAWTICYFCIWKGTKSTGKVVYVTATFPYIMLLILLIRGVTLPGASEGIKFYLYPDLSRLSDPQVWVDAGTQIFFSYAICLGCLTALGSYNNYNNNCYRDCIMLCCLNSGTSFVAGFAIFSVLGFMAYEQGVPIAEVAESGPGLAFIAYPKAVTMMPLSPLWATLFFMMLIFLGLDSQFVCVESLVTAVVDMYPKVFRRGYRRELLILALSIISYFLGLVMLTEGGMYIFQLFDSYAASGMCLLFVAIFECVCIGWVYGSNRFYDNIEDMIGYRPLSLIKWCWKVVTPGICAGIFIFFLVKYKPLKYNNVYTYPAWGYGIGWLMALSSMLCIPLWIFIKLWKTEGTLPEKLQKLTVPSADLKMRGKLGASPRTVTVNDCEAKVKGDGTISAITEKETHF
The assay can be described thus: [3H]GABA uptake assay in HEK-293 cells stably expressing mGAT4. Format: cell-based. The following applies: for remaining [3H]GABA uptake mGAT4: in the presence of 100 μM inhibitor; for IC50: [3H]GABA uptake, read-out: pIC50 ± SEM mGAT4 (converted).

The target in assay [4] is T2, mGAT1. As to the kind of experiment: competitive MS binding assay with NO711 as unlabeled marker (LC-ESI-MS/MS). The settings on record: for remaining NO711 binding mGAT1: in the presence of 100 μM inhibitor. As for the experimental part: Specific binding affinity toward mGAT1 was determined via a competitive mass spectrometry (MS) binding assay quantified by liquid chromatography–electrospray ionization tandem mass spectrometry (LC–ESI-MS/MS) with NO711 as an unlabeled marker.[50]
MS binding assays for mGAT1 were performed as described earlier.[50] Inhibition of mGAT1 binding by the synthesized compounds was determined in MS binding assays at a screening concentration of 100 μM and analyzed by LC–ESI-MS/MS.

The target of assay [5] is T4, mGAT2 (Mus musculus, UniProt P31651).
T4 construct: expressed in transfected cells; host or cells: HEK-293
T4 sequence (P31651 1-614): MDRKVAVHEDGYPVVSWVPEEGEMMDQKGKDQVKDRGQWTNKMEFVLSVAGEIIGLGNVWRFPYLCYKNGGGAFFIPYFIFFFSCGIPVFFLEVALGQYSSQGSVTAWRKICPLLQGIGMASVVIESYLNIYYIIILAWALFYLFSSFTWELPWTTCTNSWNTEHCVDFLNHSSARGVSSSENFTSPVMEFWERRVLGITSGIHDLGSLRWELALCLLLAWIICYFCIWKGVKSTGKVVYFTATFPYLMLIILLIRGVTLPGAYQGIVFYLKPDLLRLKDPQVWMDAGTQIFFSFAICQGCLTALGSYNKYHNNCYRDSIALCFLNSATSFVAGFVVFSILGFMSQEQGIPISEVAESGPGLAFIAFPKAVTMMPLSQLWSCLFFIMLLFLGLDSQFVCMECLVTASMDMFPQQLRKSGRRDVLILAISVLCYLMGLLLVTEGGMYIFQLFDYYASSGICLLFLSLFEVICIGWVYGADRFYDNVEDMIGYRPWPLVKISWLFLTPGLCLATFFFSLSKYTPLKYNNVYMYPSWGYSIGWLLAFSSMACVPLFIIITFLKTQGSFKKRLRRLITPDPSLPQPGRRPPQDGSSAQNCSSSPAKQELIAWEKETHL
The assay can be described thus: [3H]GABA uptake assay in HEK-293 cells stably expressing mGAT2. The class given is cell-based. The settings on record: for remaining [3H]GABA uptake mGAT2: in the presence of 100 μM inhibitor; for IC50: [3H]GABA uptake, read-out: pIC50 ± SEM mGAT2 (converted).

In the case of `Cc1ccsc1C(=C1CCN(C(CC(C)O)C(=O)NCc2ccccc2Cl)CC1)c1sccc1C` (centres unmarked) [2RS,4SR-37b, 2-{4-[Bis(3-methylthiophen-2-yl)methylidene]piperidin-1-yl}-N-[(2-chlorophenyl)methyl]-4-hydroxypentanamide], in assay [1], the IC50 is 72.4 µM. Moreover, in assay [2], the “remaining [3H]GABA uptake mGAT1” value was 100 μM: 50%. In assay [3], the “remaining [3H]GABA uptake mGAT4” value was 100 μM: 56%. The “remaining NO711 binding mGAT1” value in assay [4] is on record as 100 μM: 108%. Further, the “remaining [3H]GABA uptake mGAT2” value in assay [5] is 100 μM: 69%.
Regarding `CC(O)CC(C(=O)NCc1ccccc1)N1CCC(=C2c3ccccc3-c3ccccc32)CC1` (centres unmarked) [2RS,4SR-41a, N-Benzyl-2-[4-(9H-fluoren-9-ylidene)piperidin-1-yl]-4-hydroxypentanamide], the IC50 is 55 µM in assay [1], 85.1 µM in assay [2], 72.4 µM in assay [3] and 89.1 µM in assay [5]. For the same compound, the “remaining NO711 binding mGAT1” value in assay [4] was 100 μM: 89%.
Taken in the same sequence, the figures for `CC(O)CC(C(=O)NCc1ccccc1)N1CCC(=C2c3ccccc3CCc3ccccc32)CC1` (centres unmarked) [2RS,4SR-43a, N-Benzyl-2-(4-(10,11-dihydro-5H-dibenzo[a,d][7]annulen-5-ylidene)piperidin-1-yl)-4-hydroxypentanamide] were 28.2 µM, 19.5 µM, 15.8 µM, 58.9 µM and 100 μM: 73%.
Turning to `CC(O)CC(C(=O)NCc1ccc(F)cc1)N1CCC(=C2c3ccccc3CCc3ccccc32)CC1` (centres unmarked) [2RS,4SR-43b, 2-(4-(10,11-Dihydro-5H-dibenzo[a,d][7]annulen-5-ylidene)piperidin-1-yl)-N-(4-fluorobenzyl)-4-hydroxypentanamide], the “remaining [3H]GABA uptake mGAT3” value in assay [1] (in the presence of 100 μM inhibitor) is reported as 100 μM: 87%. Moreover, the “remaining [3H]GABA uptake mGAT1” value in assay [2] was 100 μM: 54%. In assay [3], the “remaining [3H]GABA uptake mGAT4” value is 100 μM: 62%. Besides, in assay [4], the “remaining NO711 binding mGAT1” value is reported as 100 μM: 102%. The “remaining [3H]GABA uptake mGAT2” value in assay [5] is listed as 100 μM: 80%.
Regarding `CC(O)CC(C(=O)NCc1ccccc1)N(C)CCON=C(c1ccccc1)c1ccccc1` (centres unmarked) [2RS,4SR-45, N-Benzyl-2-[(2-{[(diphenylmethylidene)amino]oxy}ethyl)(methyl)amino]-4-hydroxypentanamide], the IC50 is 18.2 µM in assay [1], 57.5 µM in assay [2], 39.8 µM in assay [3] and 31.6 µM in assay [5]. Moreover, the “remaining NO711 binding mGAT1” value in assay [4] is on record as 100 μM: 86%.
Taken in the same sequence, the figures for `CN(CCON=C(c1ccccc1)c1ccccc1)C(CCO)C(=O)NCc1ccccc1` (centres unmarked) [Compound 47a, N-Benzyl-2-[(2-{[(diphenylmethylidene)amino]oxy}ethyl)(methyl)amino]-4-hydroxybutanamide] were 18.2 µM, 16.6 µM, 14.8 µM, 36.3 µM and 100 μM: 87%.
Taken in the same sequence, the figures for `CN(CCON=C(c1ccccc1)c1ccccc1)C(CCO)C(=O)NCc1ccccc1Cl` (centres unmarked) [Compound 47b, N-[(2-Chlorophenyl)methyl]-2-[(2-{[(diphenylmethylidene)amino]oxy}ethyl)(methyl)amino]-4-hydroxybutanamide] were 9.12 µM, 31.6 µM, 18.6 µM, 13.8 µM and 100 μM: 86%.
Consider `CN(CCON=C(c1ccccc1)c1ccccc1)C(CCO)C(=O)NCc1ccc(Cl)c(Cl)c1` (centres unmarked) [Compound 47c, N-[(3,4-Dichlorophenyl)methyl]-2-[(2-{[(diphenylmethylidene)amino]oxy}ethyl)(methyl)amino]-4-hydroxybutanamide], for which the IC50 in assay [1] is 11 µM; in assay [2], 21.9 µM; in assay [3] it was 7.08 µM; in assay [5], 10.2 µM. The “remaining NO711 binding mGAT1” value in assay [4] was 100 μM: 82%.
For the compound `CN(CCON=C(c1ccccc1)c1ccccc1)C(CCN)C(=O)NCc1ccc(Cl)c(Cl)c1` (centres unmarked) [Compound 50b, 4-Amino-N-[(3,4-dichlorophenyl)methyl]-2-[(2-{[(diphenylmethylidene)amino]oxy}ethyl)(methyl)amino]butanamide], the IC50 in assay [1] is 4.79 µM; in assay [2], 12.3 µM; in assay [3], 4.9 µM; in assay [5], 4.9 µM. Further, in assay [4] (MS binding assay, read-out: pKi ± SEM mGAT1 (converted)), the Ki is 33.1 µM.
Regarding `CC(=O)NCCC(C(=O)NCc1ccccc1Cl)N(C)CCON=C(c1ccccc1)c1ccccc1` (centres unmarked) [Compound 51a, N-[(2-Chlorophenyl)methyl]-2-[(2-{[(diphenylmethylidene)amino]oxy}ethyl)(methyl)amino]-4-acetamidobutanamide], the IC50 is 9.33 µM in assay [1], 18.2 µM in assay [2], 12.6 µM in assay [3] and 13.2 µM in assay [5]. In addition, the “remaining NO711 binding mGAT1” value in assay [4] is listed as 100 μM: 74%.
For `CC(=O)NCCC(C(=O)NCc1ccc(Cl)c(Cl)c1)N(C)CCON=C(c1ccccc1)c1ccccc1` (centres unmarked) [Compound 51b, N-[(3,4-Dichlorophenyl)methyl]-2-[(2-{[(diphenylmethylidene)amino]oxy}ethyl)(methyl)amino]-4-acetamidobutanamide], the IC50 is 6.76 µM in assay [1], 11.7 µM in assay [2], 11.2 µM in assay [3] and 12 µM in assay [5]. In assay [4], the “remaining NO711 binding mGAT1” value is reported as 100 μM: 72%.
Taken in the same sequence, the figures for `Cc1ccsc1C(=C1CCN(C(CO)C(=O)NCc2ccccc2)CC1)c1sccc1C` (centres unmarked) [Compound 54a, N-Benzyl-2-{4-[bis(3-methylthiophen-2-yl)methylidene]piperidin-1-yl}-3-hydroxypropanamide] were 16.2 µM, 15.1 µM, 44.7 µM, 16.6 µM and 100 μM: 86%.
With `Cc1ccsc1C(=C1CCN(C(CO)C(=O)NCc2ccccc2Cl)CC1)c1sccc1C` (centres unmarked) [Compound 54b, 2-{4-[Bis(3-methylthiophen-2-yl)methylidene]piperidin-1-yl}-N-[(2-chlorophenyl)methyl]-3-hydroxypropanamide], the IC50 in assay [1] was 63.1 µM; in assay [3] it was 95.5 µM; in assay [5] it was 43.7 µM. In addition, the “remaining [3H]GABA uptake mGAT1” value in assay [2] is reported as 100 μM: 53%. Further, in assay [4], the “remaining NO711 binding mGAT1” value is listed as 100 μM: 100%.

The values are drawn from article PMC8397297 (ACS Chemical Neuroscience, 2021).
